Source: ChEMBL document CHEMBL1201862, “PubChem BioAssay data set” (2004)
Activity calls are given as the source filed them. Rule as the data show it: actives have a measured IC50 and inactives only a lower limit.

Molecular target: Envelope glycoprotein gp160 (Human immunodeficiency virus 1, UniProt Q6QLK5)
Experiment: inhibitors of HIV fusion peptide binding, primary screen, biochemical, uHTS, fluorescence dequenching (AID 1986)

Envelope glycoprotein gp160, sequence (Q6QLK5 whole entry, the tested form may be a part): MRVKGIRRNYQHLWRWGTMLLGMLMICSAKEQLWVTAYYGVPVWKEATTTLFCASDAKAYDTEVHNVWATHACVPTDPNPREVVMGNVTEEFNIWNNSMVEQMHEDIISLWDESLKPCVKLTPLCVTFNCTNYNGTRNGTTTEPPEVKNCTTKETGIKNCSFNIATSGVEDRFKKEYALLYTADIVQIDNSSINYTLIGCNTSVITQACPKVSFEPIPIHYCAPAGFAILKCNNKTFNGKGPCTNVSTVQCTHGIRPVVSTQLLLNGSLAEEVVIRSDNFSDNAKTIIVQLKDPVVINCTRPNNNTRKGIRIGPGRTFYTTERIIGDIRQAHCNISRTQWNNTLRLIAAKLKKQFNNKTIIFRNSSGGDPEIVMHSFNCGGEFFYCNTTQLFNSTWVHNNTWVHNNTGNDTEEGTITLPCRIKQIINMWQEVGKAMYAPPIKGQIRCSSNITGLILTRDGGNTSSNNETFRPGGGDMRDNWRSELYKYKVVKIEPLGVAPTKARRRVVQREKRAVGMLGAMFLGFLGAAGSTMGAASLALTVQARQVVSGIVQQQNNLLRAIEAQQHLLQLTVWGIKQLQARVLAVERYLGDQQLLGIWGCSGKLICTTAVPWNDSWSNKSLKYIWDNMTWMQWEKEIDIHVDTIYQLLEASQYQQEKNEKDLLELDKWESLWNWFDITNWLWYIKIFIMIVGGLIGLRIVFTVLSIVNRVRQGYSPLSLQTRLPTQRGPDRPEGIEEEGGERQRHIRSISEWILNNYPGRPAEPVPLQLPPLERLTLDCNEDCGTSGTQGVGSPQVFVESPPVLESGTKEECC

Row | Structure (SMILES) | IC50
1 | Cc1cccc(S(=O)(=O)Nc2nc3ccccc3nc2Nc2cccc(C(=O)O)c2)c1 | 29 µM (active)
2 | O=C(O)c1[nH]c2ccccc2c1C(c1cccc(O)c1)c1c(C(=O)O)[nH]c2ccccc12 | 25.8 µM (active)
